Values of other authors, collected in US20160120822A1, “COMPOSITION CONTAINING ROTIGOTINE AND USE THEREOF AND TRANSDERMAL PATCH CONTAINING THE COMPOSITION” (Jiangsu Kangbeide Pharmaceuticals Co. Ltd., priority 2007, published 2016).

Conditions: oral formulations

## CCCN(CCc1cccs1)[C@H]1CCc2c(O)cccc2C1 [Rotigotine]
  clearance after oral intake: overly high
  duration of action after oral intake: relatively short
